Here are results for 19 compounds from patent publication US20220389003A1, “4-SUBSTITUTED INDOLE AND INDAZOLE SULFONAMIDO DERIVATIVES AS PARG INHIBITORS” (IDEAYA BIOSCIENCES, INC., priority 2019, published 2022).

A value given as a limit tells only on which side of the number the result lay.

Assay [1] has as its target T1, PARG (Homo sapiens, UniProt Q86W56). The assay is described as follows: Inhibition of PARG enzymatic assay (TR-FRET enzymatic IC50 assay). It counts as biochemical. Details: purchased Peak Proteins. To be noted: hPARG 250 pM, biotinylated-PARylated PARP substrate 30 nM. The essentials: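 Compound preincubated 1 h with 250 pM His-tagged hPARG, then 30 nM biotinylated PARylated hPARP1 substrate added for 10 min; buffer 50 mM Tris-HCl pH 7.4, EDTA/EGTA, 1 mM DTT, 23° C. TR-FRET read after 1 h with anti-His ULight antibody and streptavidin-europium; inhibition scaled between DMSO and no-enzyme controls.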
In general terms: In TR-FRET formats the signal depends on donor and acceptor labels being close together.

For assay [2], the target named is T1, PARG. The assay is described as follows: Inhibition of PARG cellular assay (PAR foci in HeLa cells after MMS). It counts as cell-based. Details: endogenous in cells; host or cells: HeLa. The note with it: compound 1 h then MMS 1 h. The essentials:
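HeLa cells pretreated with compound for 1 h, then given MMS for a further 1 h, fixed and immunostained for PAR polymer. High-content imaging quantified nuclear PAR foci intensity (PAR Foci IC50) and percent cells with foci signal >1.3 (PAR % positive IC50).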

Assay [3] concerns HCC1806-XRCC1 KD (knock down) cells. The assay is described as follows: Cellular viability assay (Cell Titer-Glo). It counts as cell-based. To be noted: 96 h, HCC1806-shXRCC1 cells, 4 days of incubation, read-out: PARGi cell viability. The essentials: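 XRCC1-knockdown HCC1806 cells seeded 24 h before dosing; 9-point 1:3 dilution from 30 μM top concentration, duplicates, 4-day incubation. Viability by CellTiter-Glo luminescence, normalized to DMSO wells as % of control; curves fit with 4-parameter inhibition model.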
For orientation: In ATP-based viability assays light output follows the ATP content of the culture.

T1 sequence (Q86W56 whole entry): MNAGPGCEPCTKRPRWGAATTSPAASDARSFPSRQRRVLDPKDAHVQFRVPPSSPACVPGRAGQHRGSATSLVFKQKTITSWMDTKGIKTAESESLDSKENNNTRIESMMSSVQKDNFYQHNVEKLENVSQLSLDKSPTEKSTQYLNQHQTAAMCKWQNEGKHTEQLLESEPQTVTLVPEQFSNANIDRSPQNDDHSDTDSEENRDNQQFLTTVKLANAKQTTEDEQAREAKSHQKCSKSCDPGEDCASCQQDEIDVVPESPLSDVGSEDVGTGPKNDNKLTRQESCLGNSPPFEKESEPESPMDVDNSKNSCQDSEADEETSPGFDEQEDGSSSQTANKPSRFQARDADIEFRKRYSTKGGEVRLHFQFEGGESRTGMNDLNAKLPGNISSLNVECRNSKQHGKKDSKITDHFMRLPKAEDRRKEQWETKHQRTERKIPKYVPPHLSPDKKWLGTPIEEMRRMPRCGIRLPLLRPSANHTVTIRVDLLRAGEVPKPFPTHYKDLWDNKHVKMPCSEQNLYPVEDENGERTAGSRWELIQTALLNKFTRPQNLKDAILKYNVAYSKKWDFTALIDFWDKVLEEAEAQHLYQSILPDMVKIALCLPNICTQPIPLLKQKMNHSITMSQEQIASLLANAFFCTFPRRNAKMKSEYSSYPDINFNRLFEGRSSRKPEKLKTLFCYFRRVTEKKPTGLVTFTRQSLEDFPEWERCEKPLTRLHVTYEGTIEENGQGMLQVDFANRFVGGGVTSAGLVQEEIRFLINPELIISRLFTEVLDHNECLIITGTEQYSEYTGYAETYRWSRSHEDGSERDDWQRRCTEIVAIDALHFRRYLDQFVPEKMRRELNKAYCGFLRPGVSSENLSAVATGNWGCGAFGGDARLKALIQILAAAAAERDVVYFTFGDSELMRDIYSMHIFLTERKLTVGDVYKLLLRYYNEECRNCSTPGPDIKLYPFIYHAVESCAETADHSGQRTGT

For `CN1CCC(C(=O)N2CCN(c3cc(S(=O)(=O)NC4(C#N)CC4)cc4c3cnn4-c3nnc(C(F)F)s3)CC2)CC1` [Example 85, 1-{[(1-[5-(difluoromethyl)(1,3,4-thiadiazol-2-yl)]-4-{4-[(1-methyl(4-piperidyl))-carbonyl]piperazinyl}-1H-indazol-6-yl)sulfonyl]amino}cyclopropanecarbonitrile], the IC50 at PARG [1] is at most 100 nM; against PARG [2], 1000 to 10000 nM; in assay [3], 1000 to 10000 nM.
In the case of `CN(CC(F)(F)F)C(=O)N1CCN(c2cc(S(=O)(=O)NC3(C#N)CC3)cc3c2cnn3-c2nnc(C(F)F)s2)CC1` [Example 86, [4-(1-[5-(difluoromethyl)(1,3,4-thiadiazol-2-yl)]-6-{[(cyanocyclopropyl)amino]sulfonyl}(1H-indazol-4-yl))piperazinyl]-N-methyl-N-(2,2,2-trifluoroethyl)carboxamide], the IC50 on PARG [1] was at most 100 nM; against PARG [2], at most 100 nM; in assay [3], below 1000 nM.
Consider `N#CC1(NS(=O)(=O)c2cc(N3CCN(C(=O)c4ccccn4)CC3)c3cnn(-c4nnc(C(F)F)s4)c3c2)CC1` [Example 87, 1-[({1-[5-(difluoromethyl)(1,3,4-thiadiazol-2-yl)]-4-[4-(2-pyridylcarbonyl)piperazinyl]-1H-indazol-6-yl}sulfonyl)amino]cyclopropanecarbonitrile], for which the figures for the IC50 (against PARG [1]; against PARG [2]; in assay [3]) were at most 100 nM, at most 100 nM and 1000 to 10000 nM, respectively.
As for `CC(C)C(=O)N1CCN(c2cc(S(=O)(=O)NC3(C#N)CC3)cc3c2cnn3-c2nnc(C(F)F)s2)C[C@@H]1C` [Example 88, 1-[({4-[(3S)-3-methyl-4-(2-methylpropanoyl)piperazinyl]-1-[5-(difluoromethyl) (1,3,4-thiadiazol-2-yl)]-1H-indazol-6-yl}sulfonyl)amino]cyclopropanecarbonitrile], the IC50 against PARG [1] is at most 100 nM; against PARG [2], at most 100 nM; in assay [3], 1000 to 10000 nM.
As to `CC(C)C(=O)N1[C@H](C)CN(c2cc(S(=O)(=O)NC3(C#N)CC3)cc3c2cnn3-c2nnc(C(F)F)s2)C[C@@H]1C` [Example 89, 1-[({4-[cis-3,5-dimethyl-4-(2-methylpropanoyl)piperazinyl]-1-[5-(difluoromethyl)-(1,3,4-thiadiazol-2-yl)]-1H-indazol-6-yl}sulfonyl)amino]cyclopropanecarbonitrile], the IC50 is at most 100 nM against PARG [1], at most 100 nM on PARG [2] and 1000 to 10000 nM in assay [3].
For the compound `CN1CCC[C@@H]1C(=O)N1CCN(c2cc(S(=O)(=O)NC3(C#N)CC3)cc3c2cnn3-c2nnc(C(F)F)s2)CC1` [Example 90, 1-{[(4-{4-[((2R)-1-methylpyrrolidin-2-yl)carbonyl]piperazinyl}-1-[5-(difluoromethyl)(1,3,4-thiadiazol-2-yl)]-1H-indazol-6-yl)sulfonyl]amino}cyclopropanecarbonitrile], the IC50 is at most 100 nM on PARG [1], 1000 to 10000 nM on PARG [2] and 1000 to 10000 nM in assay [3].
Consider `CC(C)C(=O)N1C2CC1CN(c1cc(S(=O)(=O)NC3(C#N)CC3)cc3c1cnn3-c1nnc(C(F)F)s1)C2` [Example 91, 1-[({1-[5-(difluoromethyl)(1,3,4-thiadiazol-2-yl)]-4-[6-(2-methylpropanoyl)-3,6-diazabicyclo[3.1.1]hept-3-yl]-1H-indazol-6-yl}sulfonyl)amino]cyclopropanecarbonitrile], for which the IC50 fell in the range of 1000 to 10000 nM against PARG [1], 1000 to 10000 nM at PARG [2] and 20000 to 30000 nM in assay [3].
As to `N#CC1(NS(=O)(=O)c2cc(N3CCN(c4ccccn4)CC3)c3cnn(-c4nnc(C(F)F)s4)c3c2)CC1` [Example 93, 1-[({1-[5-(difluoromethyl)(1,3,4-thiadiazol-2-yl)]-4-(4-(2-pyridyl)piperazinyl)-1H-indazol-6-yl}sulfonyl)amino]cyclopropanecarbonitrile], the IC50 fell in the range of 1000 to 10000 nM against PARG [1], 300 to 1000 nM at PARG [2] and 1000 to 10000 nM in assay [3].
Take `N#CC1(NS(=O)(=O)c2cc(N3CCN(c4cccnc4)CC3)c3cnn(-c4nnc(C(F)F)s4)c3c2)CC1` [Example 94, 1-[({1-[5-(difluoromethyl)(1,3,4-thiadiazol-2-yl)]-4-(4-(3-pyridyl)piperazinyl)-1H-indazol-6-yl}sulfonyl)amino]cyclopropanecarbonitrile]: the figures for the IC50 (against PARG [1]; against PARG [2]; in assay [3]) were 300 to 1000 nM, 300 to 1000 nM and 1000 to 10000 nM, respectively.
As to `N#CC1(NS(=O)(=O)c2cc(N3CCN(c4cccnn4)CC3)c3cnn(-c4nnc(C(F)F)s4)c3c2)CC1` [Example 95, 1-[({1-[5-(difluoromethyl)(1,3,4-thiadiazol-2-yl)]-4-(4-pyridazin-3-ylpiperazinyl)-1H-indazol-6-yl}sulfonyl)amino]cyclopropanecarbonitrile], the IC50 on PARG [1] was at most 100 nM; at PARG [2], 100 to 300 nM; in assay [3], 1000 to 10000 nM.
Taken in the same sequence, the figures for `N#CC1(NS(=O)(=O)c2cc(N3CCN(C(=O)c4ccccc4)CC3)c3cnn(-c4nnc(C(F)F)s4)c3c2)CC1` [Example 96, 1-[({1-[5-(difluoromethyl)(1,3,4-thiadiazol-2-yl)]-4-[4-(phenylcarbonyl)piperazinyl]-1H-indazol-6-yl}sulfonyl)amino]cyclopropanecarbonitrile] were at most 100 nM, at most 100 nM and 1000 to 10000 nM.
Regarding `Cc1nnc(-n2ncc3c(N4CCN(C(=O)C(C)C)CC4)cc(S(=O)(=O)NC4(C#N)CC4)cc32)s1` [Example 97, 1-[({1-(5-methyl(1,3,4-thiadiazol-2-yl))-4-[4-(2-methylpropanoyl)piperazinyl]-1H-indazol-6-yl}sulfonyl)amino]cyclopropanecarbonitrile], the IC50 is at most 100 nM at PARG [1], 100 to 300 nM at PARG [2] and 1000 to 10000 nM in assay [3].
In the same order, the values of `CC(C)NS(=O)(=O)c1cc(N2CCN(C(=O)C(C)C)CC2)c2cnn(-c3nnc(C(F)F)s3)c2c1` [Example 98, 1-[4-(1-[5-(difluoromethyl)(1,3,4-thiadiazol-2-yl)]-6-{[(methylethyl)amino]sulfonyl}(1H-indazol-4-yl))piperazinyl]-2-methylpropan-1-one] are 100 to 300 nM, 1000 to 10000 nM and 1000 to 10000 nM.
Taken in the same sequence, the figures for `CC(C)C(=O)N1CCN(c2cc(S(=O)(=O)NC(C)(C)C)cc3c2cnn3-c2nnc(C(F)F)s2)CC1` [Example 99, 1-[4-(1-[5-(difluoromethyl)(1,3,4-thiadiazol-2-yl)]-6-{[(tert-butyl)amino]sulfonyl}(1H-indazol-4-yl))piperazinyl]-2-methylpropan-1-one] were 100 to 300 nM, 1000 to 10000 nM and 1000 to 10000 nM.
Taken in the same sequence, the figures for `N#CC1(NS(=O)(=O)c2cc(N3CCOCC3)c3cnn(-c4nnc(C(F)F)s4)c3c2)CC1` [Example 100, 1-[({1-[5-(difluoromethyl)(1,3,4-thiadiazol-2-yl)]-4-morpholin-4-yl-1H-indazol-6-yl}sulfonyl)amino]cyclopropanecarbonitrile] were 100 to 300 nM, 300 to 1000 nM and 1000 to 10000 nM.
For the compound `C[C@H]1CN(c2cc(S(=O)(=O)NC3(C#N)CC3)cc3c2cnn3-c2nnc(C(F)F)s2)CCO1` [Example 103, (S)—N-(1-cyanocyclopropyl)-1-(5-(difluoromethyl)-1,3,4-thiadiazol-2-yl)-4-(2-methylmorpholino)-1H-indazole-6-sulfonamide], the IC50 was in the range of 100 to 300 nM against PARG [1], 100 to 300 nM on PARG [2] and 1000 to 10000 nM in assay [3].
Consider `N#CC1(NS(=O)(=O)c2cc(N3CCC(F)CC3)c3cnn(-c4nnc(C(F)F)s4)c3c2)CC1` [Example 104, 1-[({1-[5-(difluoromethyl)(1,3,4-thiadiazol-2-yl)]-4-(4-fluoropiperidyl)-1H-indazol-6-yl}sulfonyl)amino]cyclopropanecarbonitrile], for which the IC50 was 300 to 1000 nM on PARG [1], 300 to 1000 nM against PARG [2] and 1000 to 10000 nM in assay [3].
For the compound `C[C@@H]1CN(c2cc(S(=O)(=O)NC3(C#N)CC3)cc3c2cnn3-c2nnc(C(F)F)s2)CCN1C(=O)C1CCN(CC(F)F)CC1` [Example 106, 1-({[4-((3R)-4-{[1-(2,2-difluoroethyl)(4-piperidyl)]carbonyl}-3-methylpiperazinyl)-1-[5-(difluoromethyl)(1,3,4-thiadiazol-2-yl)]-1H-indazol-6-yl]sulfonyl}amino) cyclopropanecarbonitrile], the IC50 was at most 100 nM against PARG [1], at most 100 nM on PARG [2] and 1000 to 10000 nM in assay [3].
For `N#CC1(NS(=O)(=O)c2cc(N3CCN(C(=O)C4CCN(CC(F)F)CC4)CC3)c3cnn(-c4nnc(C(F)F)s4)c3c2)CC1` [Example 107, 1-({[4-(4-{[1-(2,2-difluoroethyl)(4-piperidyl)]carbonyl}piperazinyl)-1-[5-(difluoro-methyl)(1,3,4-thiadiazol-2-yl)]-1H-indazol-6-yl]sulfonyl}amino)cyclopropane carbonitrile], the IC50 at PARG [1] was at most 100 nM; against PARG [2], 100 to 300 nM; in assay [3] it was 1000 to 10000 nM.
